Experimental data from BindingDB's records for doi:10.1021/acs.jmedchem.6b01870 (Purdue University, 2017).

Key:
[1] = molecular target: T1, Tyrosyl-DNA phosphodiesterase 2 (Homo sapiens, UniProt O95551); test: ChEBML_1689437
T1 sequence (O95551 whole entry): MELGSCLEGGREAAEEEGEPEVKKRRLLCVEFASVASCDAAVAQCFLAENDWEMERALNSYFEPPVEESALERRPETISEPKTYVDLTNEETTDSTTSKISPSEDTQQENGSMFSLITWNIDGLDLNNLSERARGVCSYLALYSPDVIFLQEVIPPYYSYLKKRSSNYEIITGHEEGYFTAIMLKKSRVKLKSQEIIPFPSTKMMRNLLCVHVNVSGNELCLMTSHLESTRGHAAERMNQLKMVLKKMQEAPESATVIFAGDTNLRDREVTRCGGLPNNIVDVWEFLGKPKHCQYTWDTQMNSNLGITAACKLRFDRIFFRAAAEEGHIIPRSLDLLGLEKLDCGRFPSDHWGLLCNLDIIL
Method: Inhibition of recombinant human TDP2 using 3'-labeled alpha-[32P]-cordycepin as substrate after 15 mins

[2] = molecular target: Tyrosyl-DNA phosphodiesterase 1 (Homo sapiens, UniProt Q9NUW8); test: ChEBML_1689436
Method: Inhibition of recombinant TDP1 (unknown origin) using 5'-[32P]-labeled single stranded DNA containing a 3'-phosphotyrosine as substrate after 15 mins by PAGE analysis

Chain of Tyrosyl-DNA phosphodiesterase 1 (Q9NUW8 whole entry): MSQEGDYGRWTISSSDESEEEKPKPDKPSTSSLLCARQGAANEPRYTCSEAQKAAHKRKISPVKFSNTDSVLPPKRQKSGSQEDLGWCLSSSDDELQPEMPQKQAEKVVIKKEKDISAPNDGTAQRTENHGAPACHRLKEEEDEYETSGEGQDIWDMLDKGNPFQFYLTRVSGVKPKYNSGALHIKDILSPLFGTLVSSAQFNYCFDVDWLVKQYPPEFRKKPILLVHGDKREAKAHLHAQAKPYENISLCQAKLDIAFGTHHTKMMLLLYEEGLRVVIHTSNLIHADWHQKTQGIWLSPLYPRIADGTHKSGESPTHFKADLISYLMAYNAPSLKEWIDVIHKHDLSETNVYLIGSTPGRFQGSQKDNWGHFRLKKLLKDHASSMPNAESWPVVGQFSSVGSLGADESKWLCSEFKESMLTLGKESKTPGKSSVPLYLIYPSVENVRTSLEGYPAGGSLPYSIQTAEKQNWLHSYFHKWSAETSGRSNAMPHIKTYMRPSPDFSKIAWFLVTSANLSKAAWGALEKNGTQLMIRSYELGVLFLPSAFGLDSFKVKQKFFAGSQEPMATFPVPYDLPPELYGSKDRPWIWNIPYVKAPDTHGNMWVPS

`CC[C@@]1(O)C(=O)OCc2c1cc1n(c2=O)Cc2cc3ccccc3nc2-1` [4-Ethyl-4-hydroxy-1,12-dihydro-4H-2-oxa-6,12a-diaza-dibenzo[b,h]fluorene-3,13-dione (Camptothecin)] gave an IC50 [1] greater than 111 µM and an IC50 [2] greater than 111 µM.
